Reference: ChEMBL document CHEMBL1136955, “Compelling P1 substituent affect on metalloprotease binding profile enables the design of a novel cyclohexyl core scaffold with excellent MMP selectivity and HER-2 sheddase inhibition” (Bioorg Med Chem Lett, 2009)

Experiments:
[1] = molecular target: Matrix metalloproteinase-9 (Homo sapiens, UniProt P14780); assay: Inhibition of human MMP9
[2] = molecular target: 72 kDa type IV collagenase (Homo sapiens, UniProt P08253); assay: Inhibition of human MMP2
Sequence of 72 kDa type IV collagenase (P08253 whole entry): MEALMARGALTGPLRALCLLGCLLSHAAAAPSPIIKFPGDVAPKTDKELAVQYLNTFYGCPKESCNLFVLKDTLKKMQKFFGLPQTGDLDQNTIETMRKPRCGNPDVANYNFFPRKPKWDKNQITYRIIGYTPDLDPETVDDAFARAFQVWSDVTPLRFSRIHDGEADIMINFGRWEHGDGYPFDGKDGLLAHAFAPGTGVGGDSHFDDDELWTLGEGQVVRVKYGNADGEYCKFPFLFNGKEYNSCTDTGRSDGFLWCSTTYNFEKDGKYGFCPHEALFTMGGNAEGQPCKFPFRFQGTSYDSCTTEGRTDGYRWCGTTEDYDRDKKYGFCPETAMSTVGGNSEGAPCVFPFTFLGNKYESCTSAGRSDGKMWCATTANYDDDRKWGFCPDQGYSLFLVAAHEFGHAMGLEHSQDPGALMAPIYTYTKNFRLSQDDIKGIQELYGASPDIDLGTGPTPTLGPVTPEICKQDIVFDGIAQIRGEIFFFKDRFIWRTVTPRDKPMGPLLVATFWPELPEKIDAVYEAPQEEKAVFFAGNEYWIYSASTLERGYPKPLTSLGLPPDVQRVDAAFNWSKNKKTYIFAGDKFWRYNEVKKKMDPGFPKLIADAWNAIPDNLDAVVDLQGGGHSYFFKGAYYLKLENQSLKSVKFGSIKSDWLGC

Stromelysin-1 = Stromelysin-1 (Homo sapiens, UniProt P08254); assay: Inhibition of human MMP3
Sequence of Stromelysin-1 (P08254 whole entry, the tested form may be a part): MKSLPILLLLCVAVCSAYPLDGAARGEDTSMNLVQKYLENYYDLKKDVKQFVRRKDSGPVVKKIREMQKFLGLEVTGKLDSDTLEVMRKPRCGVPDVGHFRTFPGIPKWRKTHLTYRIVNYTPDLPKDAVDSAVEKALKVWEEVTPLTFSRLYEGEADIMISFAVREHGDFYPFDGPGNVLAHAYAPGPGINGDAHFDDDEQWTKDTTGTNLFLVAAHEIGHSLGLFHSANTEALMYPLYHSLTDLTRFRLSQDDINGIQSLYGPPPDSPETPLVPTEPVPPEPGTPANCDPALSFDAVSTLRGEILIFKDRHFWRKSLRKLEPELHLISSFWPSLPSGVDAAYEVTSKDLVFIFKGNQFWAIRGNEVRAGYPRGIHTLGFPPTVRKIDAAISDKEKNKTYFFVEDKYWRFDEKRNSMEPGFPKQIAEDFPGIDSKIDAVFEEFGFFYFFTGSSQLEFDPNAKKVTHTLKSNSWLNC

[3] = molecular target: T1, Disintegrin and metalloproteinase domain-containing protein 10 (Homo sapiens, UniProt O14672); assay: Inhibition of human recombinant ADAM10
T1 sequence (O14672 whole entry): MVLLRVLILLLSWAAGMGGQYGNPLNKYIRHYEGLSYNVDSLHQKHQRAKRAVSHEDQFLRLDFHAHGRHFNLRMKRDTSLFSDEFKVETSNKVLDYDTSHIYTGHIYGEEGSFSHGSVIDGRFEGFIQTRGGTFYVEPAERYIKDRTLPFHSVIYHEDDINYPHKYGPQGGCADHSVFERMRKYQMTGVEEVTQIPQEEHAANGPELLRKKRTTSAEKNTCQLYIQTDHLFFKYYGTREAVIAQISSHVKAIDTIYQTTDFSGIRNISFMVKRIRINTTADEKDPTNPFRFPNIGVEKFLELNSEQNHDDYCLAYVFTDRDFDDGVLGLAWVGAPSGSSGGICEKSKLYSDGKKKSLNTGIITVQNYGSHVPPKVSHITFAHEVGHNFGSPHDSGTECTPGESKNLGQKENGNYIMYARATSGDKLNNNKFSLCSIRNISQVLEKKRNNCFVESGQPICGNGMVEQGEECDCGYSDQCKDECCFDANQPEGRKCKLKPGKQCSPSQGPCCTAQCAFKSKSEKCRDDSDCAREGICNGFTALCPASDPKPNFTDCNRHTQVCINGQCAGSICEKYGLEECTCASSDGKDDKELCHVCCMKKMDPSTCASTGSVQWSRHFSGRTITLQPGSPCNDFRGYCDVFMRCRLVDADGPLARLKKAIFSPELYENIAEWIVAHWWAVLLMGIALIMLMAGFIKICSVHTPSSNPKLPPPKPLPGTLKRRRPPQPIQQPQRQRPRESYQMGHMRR

Interstitial collagenase = molecular target: T2, Interstitial collagenase (Homo sapiens, UniProt P03956); assay: Inhibition of human MMP1
T2 sequence (P03956 whole entry): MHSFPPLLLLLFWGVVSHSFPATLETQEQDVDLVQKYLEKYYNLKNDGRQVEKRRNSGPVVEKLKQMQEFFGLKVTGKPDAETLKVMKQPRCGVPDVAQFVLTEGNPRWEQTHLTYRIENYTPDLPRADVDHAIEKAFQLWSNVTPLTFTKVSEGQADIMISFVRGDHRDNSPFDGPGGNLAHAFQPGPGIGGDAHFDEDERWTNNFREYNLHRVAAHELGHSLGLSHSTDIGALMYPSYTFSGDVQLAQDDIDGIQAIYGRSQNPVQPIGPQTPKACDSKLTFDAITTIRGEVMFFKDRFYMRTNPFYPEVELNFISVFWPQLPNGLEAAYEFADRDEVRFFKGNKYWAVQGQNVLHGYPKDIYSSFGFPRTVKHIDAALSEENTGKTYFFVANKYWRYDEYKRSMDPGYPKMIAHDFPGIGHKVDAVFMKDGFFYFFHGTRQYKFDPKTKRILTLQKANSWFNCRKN

Homo sapiens = species: Homo sapiens; assay: Selectivity ratio of IC50 for human MMP2 to IC50 for human ADAM10

Sequence of Matrix metalloproteinase-9 (P14780 whole entry): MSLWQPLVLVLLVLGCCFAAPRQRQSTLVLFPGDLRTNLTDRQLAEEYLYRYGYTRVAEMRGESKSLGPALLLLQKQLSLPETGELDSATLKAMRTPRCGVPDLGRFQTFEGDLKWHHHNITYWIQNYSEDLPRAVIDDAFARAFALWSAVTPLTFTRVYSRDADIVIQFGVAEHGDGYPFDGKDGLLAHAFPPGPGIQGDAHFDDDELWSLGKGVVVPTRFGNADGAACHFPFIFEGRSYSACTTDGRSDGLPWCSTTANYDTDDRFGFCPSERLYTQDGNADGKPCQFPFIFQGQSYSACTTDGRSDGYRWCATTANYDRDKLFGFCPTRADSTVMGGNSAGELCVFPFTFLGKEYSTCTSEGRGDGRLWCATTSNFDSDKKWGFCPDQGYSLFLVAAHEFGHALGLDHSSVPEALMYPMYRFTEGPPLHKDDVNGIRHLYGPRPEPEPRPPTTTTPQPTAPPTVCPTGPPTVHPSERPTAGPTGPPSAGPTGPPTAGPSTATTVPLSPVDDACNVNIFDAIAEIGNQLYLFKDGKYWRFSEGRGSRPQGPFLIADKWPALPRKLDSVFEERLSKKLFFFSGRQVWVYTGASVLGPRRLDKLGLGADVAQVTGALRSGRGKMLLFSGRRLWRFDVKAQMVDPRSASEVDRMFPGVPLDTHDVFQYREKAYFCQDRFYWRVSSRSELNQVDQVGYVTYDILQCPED

| SMILES | IC50 [1] [nM] | IC50 [2] [nM] | IC50 (Stromelysin-1) [nM] | IC50 [3] [nM] | IC50 (Interstitial collagenase) [nM] | Ratio IC50 (Homo sapiens) |
| --- | --- | --- | --- | --- | --- | --- |
| O=C(NO)[C@H]1CC2(CC2)CN[C@@H]1C(=O)N1CCC(c2ccccc2)C1 (some centres undefined) | > 5000 | 998 | > 5000 |  |  |  |
| O=C(NO)[C@H]1CCCC[C@@H]1C(=O)N1CCN(c2ccccc2)CC1 |  | 180 |  | 1540 | > 5000 |  |
| O=C(NO)[C@H]1C[C@H](CC(=O)N2CCCCC2)CC[C@@H]1C(=O)N1CCN(c2ccccc2)CC1 |  | 1090 |  |  |  |  |
| O=C(NO)[C@H]1CC(CC(=O)N2CCOCC2)CC[C@@H]1C(=O)N1CCN(c2ccccc2)CC1 (some centres undefined) |  | 236 |  | 83 |  |  |
| CC(C)c1cccc(C2CCN(C(=O)[C@H]3CC[C@H](CC(=O)N4CCCCC4)C[C@@H]3C(=O)NO)CC2)c1 | > 5000 | > 5000 | > 5000 | 21 | > 5000 |  |
| CC(C)c1cccc(C2CCN(C(=O)[C@H]3CC[C@@H](CC(=O)N4CCCCC4)C[C@@H]3C(=O)NO)CC2)c1 |  | > 5000 |  | 915 |  |  |
| O=C(CC1CN[C@H](C(=O)N2CCC(c3ccccc3)C2)[C@@H](C(=O)NO)C1)NCCCCCNC(=O)OCc1ccccc1 (mixture of isomers) | 1790 | 1280 | 5000 | 302 | > 5000 |  |
| NCCCCCNC(=O)CC1CN[C@H](C(=O)N2CCC(c3ccccc3)C2)[C@@H](C(=O)NO)C1 (mixture of isomers) | > 5000 | 1660 | > 5000 | 161 | > 5000 |  |
| O=C(NO)[C@H]1CC(CC(=O)N2CCCCC2)CC[C@@H]1C(=O)N1CCN(c2ccccc2)CC1 (mixture of isomers) | 1880 | 321 | > 5000 |  | > 5000 |  |
| O=C(NO)[C@H]1CC(CC(=O)N2CCCC2)CC[C@@H]1C(=O)N1CCN(c2ccccc2)CC1 (mixture of isomers) | 1440 | 271 | > 5000 | 64 | > 5000 |  |

The next molecules have a lower IC50 [2] than those just listed; values first:

| IC50 [1] [nM] | IC50 [2] [nM] | IC50 (Stromelysin-1) [nM] | IC50 [3] [nM] | IC50 (Interstitial collagenase) [nM] | Ratio IC50 (Homo sapiens) | SMILES |
| --- | --- | --- | --- | --- | --- | --- |
|  | 156 |  | 111 |  |  | O=C(NO)[C@H]1CC(CC(=O)N2CC[C@@H](O)C2)CC[C@@H]1C(=O)N1CCN(c2ccccc2)CC1 (mixture of isomers) |
| 577 | 106 | > 5000 | 196 | > 5000 | 2 | O=C(NO)[C@H]1CC2(CC[C@@H]1C(=O)N1CCN(c3ccccc3)CC1)CC2 (mixture of isomers) |
| 683 | 100 | > 5000 | 15 | > 5000 |  | O=C(NO)[C@H]1C[C@@H](CC(=O)N2CCCCC2)CC[C@@H]1C(=O)N1CCN(c2ccccc2)CC1 |
|  | 92 |  | 167 |  |  | CN1CC(CC(=O)N2CCCC2)C[C@H](C(=O)NO)[C@H]1C(=O)N1CCN(c2ccccc2)CC1 (mixture of isomers) |
|  | 81 |  | 77 |  |  | CN1CC(CC(=O)N2CCCCC2)C[C@H](C(=O)NO)[C@H]1C(=O)N1CCN(c2ccccc2)CC1 (mixture of isomers) |
| 2500 | 68 | > 5000 | 30 | > 5000 |  | CN1CCN(C(=O)CC2CC[C@H](C(=O)N3CCN(c4ccccc4)CC3)[C@@H](C(=O)NO)C2)CC1 (mixture of isomers) |
|  | 8 |  | 19 |  |  | O=C(NO)[C@H]1CC(CC(=O)N2CCCC2)CN[C@@H]1C(=O)N1CCN(c2ccccc2)CC1 (mixture of isomers) |
